What all share (assay type): cell-based
For assay [1], the system named is HAP1 MTAP-deleted cell line. Put plainly: viability assay for the MTAP-deleted cell line. Conditions: Homo sapiens.
Assay [2] concerns PRMT5 (SDMA) in HAP1 MTAP-deleted cell line. Put plainly: SDMA in-cell western assay, HAP1 MTAP-deleted cell line. Conditions: for IC50 / IC90: Homo sapiens, SDMA in-cell western, HAP1 MTAP-deleted (MTAP-null) cell line; for Hap1 MTAP intact/deleted ratio: ratio of SDMA in-cell western IC50 in HAP1 MTAP-intact to IC50 in HAP1 MTAP-deleted cell line. An excerpt: (§1) HAP1 MTAP-intact is a cell line in which endogenous levels of MTAP are expressed, and HAP1 MTAP-deleted is an MTAP-null cell line.

Assay [3] concerns PRMT5 (SDMA) in HAP1 MTAP-intact cell line. Description: SDMA in-cell western assay, HAP1 MTAP-intact cell line. The following applies: Homo sapiens, HAP1 MTAP-intact cell line (endogenous MTAP), read-out: Hap 1 MTAP intact IC50.
Text: as §1

For orientation: IC50 means the midpoint of a concentration-inhibition curve. What is called IC90 is the concentration needed for an effect of 90%. Read a low IC90 as an effect from little substance.

For `CC(C)C(=O)N1C[C@H](c2ccc(F)c(Cl)c2)N(C(=O)C(=O)Nc2cnc(N)c(C3CC3)c2)C[C@H]1C` [Compound 24, N-(6-amino-5-cyclopropylpyridin-3-yl)-2-((2S,5R)-2-(3-chloro-4-fluorophenyl)-4-isobutyryl-5-methylpiperazin-1-yl)-2-oxoacetamide], the IC50 in assay [1] is less than 100 nM. In addition, in assay [2], the IC50 is less than 5 nM, the IC90 is less than 75 nM and the “Hap1 MTAP intact/deleted ratio” value is given as “B (an IC50 ratio greater than or equal to 15 fold but lower than 30 fold)”. In addition, the IC50 in assay [3] is greater than 50 nM.

Take `CC(C)C(=O)N1C[C@H](c2cccc(N3CCN(C)CC3)c2)N(C(=O)C(=O)Nc2cncc3cn[nH]c23)C[C@H]1C` [Compound 113, 2-((2S,5R)-4-isobutyryl-5-methyl-2-(3-(4-methylpiperazin-1-yl)phenyl)piperazin-1-yl)-2-oxo-N-(1H-pyrazolo[4,3-c]pyridin-7-yl)acetamide]: the IC50 in assay [1] was less than 100 nM. Besides, in assay [2], the IC50 fell in the range of 5 to 50 nM, the IC90 is greater than 125 nM and the “Hap1 MTAP intact/deleted ratio” value is on record as “C (an IC50 ratio of less than 15 fold)”. Moreover, in assay [3], the IC50 is greater than 50 nM.

With `CCc1cc(NC(=O)C(=O)N2C[C@H](C)N(C(=O)CC3CC3)C[C@H]2c2ccc(F)cc2)cnc1N` [Compound 73, N-(6-amino-5-ethyl-3-pyridyl)-2-[(2R,5S)-4-(2-cyclopropylacetyl)-2-(4-fluorophenyl)-5-methyl-piperazin-1-yl]-2-oxo-acetamide], the IC50 in assay [1] is less than 100 nM. In assay [2], the IC50 lay within 5 to 50 nM, the 90% effect concentration (IC90) was 75 to 125 nM and the “Hap1 MTAP intact/deleted ratio” value is reported as “B (an IC50 ratio greater than or equal to 15 fold but lower than 30 fold)”. In addition, in assay [3], the IC50 was greater than 50 nM.

The molecule `Cc1cc(NC(=O)C(=O)N2C[C@@H](C)N(C(=O)C3(C(F)(F)F)CC3)C[C@@H]2c2cc(Cl)cc(Cl)c2)cnc1N` [Compound 62, N-(6-amino-5-methylpyridin-3-yl)-2-((2S,5R)-2-(3,5-dichlorophenyl)-5-methyl-4-(1-(trifluoromethyl)cyclopropanecarbonyl)piperazin-1-yl)-2-oxoacetamide] showed an IC50 in assay [1] of less than 100 nM. In addition, in assay [2], the IC50 was 5 to 50 nM, the concentration for an effect of 90% (IC90) lay in the range of 75 to 125 nM and the “Hap1 MTAP intact/deleted ratio” value is listed as “A (an IC50 ratio greater than or equal to 30 fold)”. The IC50 in assay [3] is greater than 50 nM.

With `CCc1cc(NC(=O)C(=O)N2C[C@@H](C)N(C(=O)C(C)C)C[C@@H]2c2ccc(N3CCN(C)CC3)cc2)cnc1N` [Compound 89, N-(6-amino-5-ethylpyridin-3-yl)-2-((2S,5R)-4-isobutyryl-5-methyl-2-(4-(4-methylpiperazin-1-yl)phenyl)piperazin-1-yl)-2-oxoacetamide], the IC50 in assay [1] is less than 100 nM. In assay [2], the IC50 was less than 5 nM, the IC90 is less than 75 nM and the “Hap1 MTAP intact/deleted ratio” value is “A (an IC50 ratio greater than or equal to 30 fold)”. Besides, in assay [3], the IC50 is greater than 50 nM.

With `CC(C)CN1C[C@H](c2ccccc2)N(C(=O)C(=O)Nc2cnc(N)c3cn[nH]c23)C[C@H]1C` [Compound 16], in assay [1], the IC50 is less than 100 nM. Further, in assay [2], the IC50 is less than 5 nM, the IC90 was less than 75 nM and the “Hap1 MTAP intact/deleted ratio” value was “A (an IC50 ratio greater than or equal to 30 fold)”. Also, in assay [3], the IC50 is 5 to 50 nM.

For the molecule `CCc1cc(NC(=O)C(=O)N2C[C@@H](C)N(C(=O)C3(C(F)(F)F)CC3)C[C@@H]2c2ccc(N3CCN(C)CC3)cc2)cnc1N` [Compound 132, N-(6-amino-5-ethylpyridin-3-yl)-2-((2S,5R)-5-methyl-2-(4-(4-methylpiperazin-1-yl)phenyl)-4-(1-(trifluoromethyl)cyclopropanecarbonyl)piperazin-1-yl)-2-oxoacetamide], the IC50 was less than 100 nM in assay [1], less than 5 nM in assay [2] and 5 to 50 nM in assay [3]. Moreover, the 90% effect concentration (IC90) in assay [2] was less than 75 nM. Moreover, the “Hap1 MTAP intact/deleted ratio” value in assay [2] is recorded as “C (an IC50 ratio of less than 15 fold)”.

For `Cc1cc(NC(=O)C(=O)N2C[C@@H](C)N(C(=O)C(C)C)C[C@@H]2c2ccc3scnc3c2)cnc1N` (single isomer, unassigned) [Compound 43], the results for the IC50 in assay [1], in assay [2] and in assay [3] were 100 to 1000 nM, 5 to 50 nM and greater than 50 nM, respectively. This molecule gave an IC90 in assay [2] greater than 125 nM. Moreover, the “Hap1 MTAP intact/deleted ratio” value in assay [2] is recorded as “C (an IC50 ratio of less than 15 fold)”.

Turning to `Cc1cc(NC(=O)C(=O)N2C[C@@H](C)N(C(=O)CC3(C)CC3)C[C@@H]2c2ccccc2)cnc1N` [Compound 49], the IC50 in assay [1] fell in the range of 100 to 1000 nM. In assay [2], the IC50 is 5 to 50 nM, the IC90 is 75 to 125 nM and the “Hap1 MTAP intact/deleted ratio” value was “C (an IC50 ratio of less than 15 fold)”. Moreover, in assay [3], the IC50 was greater than 50 nM.

Turning to `CCc1cc(NC(=O)C(=O)N2C[C@@H](C)N(C(=O)C(C)C)C[C@@H]2c2ccc(C)cc2)cnc1N` [Compound 71, N-(6-amino-5-ethylpyridin-3-yl)-2-((2S,5R)-4-isobutyryl-5-methyl-2-(p-tolyl)piperazin-1-yl)-2-oxoacetamide], the IC50 was less than 100 nM in assay [1], 5 to 50 nM in assay [2] and greater than 50 nM in assay [3]. In assay [2], this molecule gave an IC90 of 75 to 125 nM. The “Hap1 MTAP intact/deleted ratio” value in assay [2] was “B (an IC50 ratio greater than or equal to 15 fold but lower than 30 fold)”.

As to `COc1ncc(NC(=O)C(=O)N2C[C@@H](C)N(C(=O)C(C)(C)CN(C)C)C[C@@H]2c2ccccc2)cc1C(N)=O` [Compound 69], the figures for the IC50 in assay [1], in assay [2] and in assay [3] were 100 to 1000 nM, 5 to 50 nM and greater than 50 nM, respectively. Moreover, the IC90 in assay [2] was greater than 125 nM. Besides, the “Hap1 MTAP intact/deleted ratio” value in assay [2] was “A (an IC50 ratio greater than or equal to 30 fold)”.

`Cc1cc(NC(=O)C(=O)N2C[C@@H](C)N(C(=O)C3(C)CCN(C)C3)C[C@@H]2c2ccccc2)cnc1N` (some centres unmarked) [Compound 34] displayed an IC50 in assay [1] of 100 to 1000 nM. In assay [2], the half-maximal inhibitory concentration (IC50) lay within 5 to 50 nM, the IC90 was greater than 125 nM and the “Hap1 MTAP intact/deleted ratio” value is “B (an IC50 ratio greater than or equal to 15 fold but lower than 30 fold)”. The half-inhibitory concentration (IC50) in assay [3] was greater than 50 nM.

Turning to `Cc1cc(NC(=O)C(=O)N2C[C@@H](C)N(C(=O)C(C)(C)CN(C)C)C[C@@H]2c2ccccc2)cnc1N` [Compound 13], the IC50 in assay [1] is less than 100 nM. Further, in assay [2], the IC50 was in the range of 5 to 50 nM, the IC90 is less than 75 nM and the “Hap1 MTAP intact/deleted ratio” value is given as “C (an IC50 ratio of less than 15 fold)”. Further, the IC50 in assay [3] was greater than 50 nM.

Turning to `Cc1cc(NC(=O)C(=O)N2C[C@@H](C)N(C(=O)C3(C(F)(F)F)CC3)C[C@@H]2c2ccc(F)c(Cl)c2)cnc1N` [Compound 29, N-(6-amino-5-methylpyridin-3-yl)-2-((2S,5R)-2-(3-chloro-4-fluorophenyl)-5-methyl-4-(1-(trifluoromethyl)cyclopropanecarbonyl)piperazin-1-yl)-2-oxoacetamide], the IC50 was less than 100 nM in assay [1], less than 5 nM in assay [2] and greater than 50 nM in assay [3]. In addition, the IC90 in assay [2] is less than 75 nM. Also, the “Hap1 MTAP intact/deleted ratio” value in assay [2] is “B (an IC50 ratio greater than or equal to 15 fold but lower than 30 fold)”.

Consider `C[C@@H]1CN(C(=O)C(=O)Nc2cncc3cn[nH]c23)[C@@H](c2ccccc2)CN1C(=O)C(C)(C)C` [Compound 156, 2-((2S,5R)-5-methyl-2-phenyl-4-pivaloylpiperazin-1-yl)-2-oxo-N-(1H-pyrazolo[4,3-c]pyridin-7-yl)acetamide], for which, in assay [1], the concentration for half-maximal inhibition (IC50) is less than 100 nM. Moreover, in assay [2], the IC50 was less than 5 nM, the IC90 was less than 75 nM and the “Hap1 MTAP intact/deleted ratio” value is “C (an IC50 ratio of less than 15 fold)”. The half-inhibitory concentration (IC50) in assay [3] fell in the range of 5 to 50 nM.

In turn, `Cc1cc(NC(=O)C(=O)N2C[C@@H](C)N(C(=O)C3(C(F)(F)F)CC3)C[C@@H]2c2ccc(F)c(F)c2)cnc1N` [Compound 38, N-(6-amino-5-methylpyridin-3-yl)-2-((2S,5R)-2-(3,4-difluorophenyl)-5-methyl-4-(1-(trifluoromethyl)cyclopropanecarbonyl)piperazin-1-yl)-2-oxoacetamide] returned an IC50 in assay [1] of less than 100 nM. In assay [2], the IC50 lay within 5 to 50 nM, the IC90 is 75 to 125 nM and the “Hap1 MTAP intact/deleted ratio” value is “C (an IC50 ratio of less than 15 fold)”. In addition, in assay [3], the 50% inhibitory concentration (IC50) is greater than 50 nM.

For the molecule `CCc1cc(NC(=O)C(=O)N2CCN(C(=O)C3(C(F)(F)F)CC3)C[C@@H]2c2ccc(F)c(Cl)c2)cnc1N` [Compound 47, N-(6-amino-5-ethyl-3-pyridyl)-2-[(2S)-2-(3-chloro-4-fluoro-phenyl)-4-[1-(trifluoromethyl)cyclopropanecarbonyl]piperazin-1-yl]-2-oxo-acetamide], the IC50 in assay [1] was greater than 1000 nM; in assay [2], greater than 50 nM; in assay [3], greater than 50 nM. Further, the 90% effect concentration (IC90) in assay [2] is greater than 125 nM. The “Hap1 MTAP intact/deleted ratio” value in assay [2] is given as “C (an IC50 ratio of less than 15 fold)”.

The molecule `C[C@@H]1CN(C(=O)C(=O)Nc2cnc(N)c3cn[nH]c23)[C@@H](c2cccc(Cl)c2)CN1C` [Compound 18] returned an IC50 in assay [1] of less than 100 nM. Also, in assay [2], the IC50 was less than 5 nM, the IC90 is less than 75 nM and the “Hap1 MTAP intact/deleted ratio” value is “A (an IC50 ratio greater than or equal to 30 fold)”. In addition, in assay [3], the IC50 is greater than 50 nM.

The molecule `Cc1cc(NC(=O)C(=O)N2C[C@@H](C)N(C(=O)C(C)C)C[C@@H]2c2cccc(Cl)c2)cnc1N` [Compound 90, N-(6-amino-5-methylpyridin-3-yl)-2-((2S,5R)-2-(3-chlorophenyl)-4-isobutyryl-5-methylpiperazin-1-yl)-2-oxoacetamide] showed an IC50 in assay [1] of less than 100 nM. Also, in assay [2], the IC50 fell in the range of 5 to 50 nM, the concentration for an effect of 90% (IC90) was greater than 125 nM and the “Hap1 MTAP intact/deleted ratio” value is “B (an IC50 ratio greater than or equal to 15 fold but lower than 30 fold)”. For the same molecule, in assay [3], the IC50 is greater than 50 nM.

The values above are taken from US20250282749A1 (Tango Therapeutics, Inc., priority 2022, published 2025).
